Test results taken from publication PMC4604124, “In Vitro Characterization of the Pharmacological Properties of the Anti-Cancer Chelator, Bp4eT, and Its Phase I Metabolites” (PLoS ONE, 2015).
“And” between values parts separate entries of the source, which are not always exact repeats. Equal entries are not always repeated. Where two headings read alike, the source gives them in different places.

Columns and labels:
[1] = system: MCF-7 human breast adenocarcinoma cells; test: MTT cytotoxicity assay, MCF-7 cells; assay type: cell-based; settings: for IC50: MTT, read-out: IC50
Method in brief: (§1)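 72 h/37°C exposure, 0.1% DMSO. Plating: MCF-7 5,000; HCT116, A549 2,000; H9c2 10,000 cells/well, H9c2 switched to serum/pyruvate-free DMEM 24 h. MTT OD 570 nm, 690 nm background subtracted. Viability as % untreated control; IC50 derived.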

[2] = system: A549 human lung adenocarcinoma cells; test: MTT cytotoxicity assay, A549 cells; assay type: cell-based; settings: for IC50: MTT
Method in brief: as §1

[3] = MTT cytotoxicity assay, 3T3 cells; assay type: cell-based, mouse; settings: mouse, 3T3 mouse embryo fibroblasts, 3T3, 10 000 b/j; for viability at 72 h, 1 μM: koncentrace 1 μM; for viability at 72 h, 3 μM: koncentrace 3 μM; for viability at 72 h, 10 μM: koncentrace 10 μM; for viability at 72 h, 30 μM: koncentrace 30 μM; for viability at 72 h, 100 μM: koncentrace 100 μM; for viability at 72 h, 300 μM: koncentrace 300 μM; for viability at 72 h, 1000 μM: koncentrace 1000 μM
Method in brief: (§2)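 Non-cancerous 3T3 mouse embryo fibroblasts were plated at 10,000 cells/well in 96-well plates and cultured for 24 h/37°C. The medium was then replaced with serum- and pyruvate-free DMEM for a further 24 h/37°C. Cells were exposed to agents for 72 h/37°C with 0.1% DMSO present, and viability was measured by MTT.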

[4] = system: 3T3 mouse embryo fibroblasts; test: MTT cytotoxicity assay, 3T3 cells; assay type: cell-based; settings: for MTT viability (0 = 100): 3T3, 10 000 b/j, individual experiments
Method in brief: as §2

[5] = system: MCF-7 cells; test: Cell cycle analysis by flow cytometry (propidium iodide); assay type: cell-based, human; settings: 0.1 μM, 72 h, control 33%
Description: To examine the effect of the agents on the cell cycle, MCF-7 cells were seeded in 60 mm Petri dishes at a density of 240,000 cells/dish and incubated with Bp4eT or its metabolites for 72 h/37°C. The cells were then harvested, fixed by ethanol and stained by propidium iodide (Molecular Probes, Eugene, OR, USA) for 30 min/37°C, as described previously. Cells were analyzed using Accuri C6 flow cytometer (Becton Dickinson and Company, San Jose, CA USA). Propidium iodide was excited at λex = 488 nm and fluorescence analyzed at λem = 585 nm (FL-2) with a total of 10,000 events collected per analysis.
SigmaStat for Windows 3.5 (Systat Software, San Jose, CA, USA) statistical software package was utilized to analyze results. The data are expressed as the mean ± SD of a given number of experiments. Statistical significance was determined using a one-way ANOVA with a Bonferroni post-hoc test or Student’s t-test. The results were considered to be statistically significant when p < 0.05. The IC50 values were calculated using CalcuSyn 2.0 software (Biosoft, Cambridge, UK). Cell cycle analysis was evaluated using MultiCycle AV Software (Phoenix Flow Systems, San Diego, CA, USA).

[6] = system: caspase 8; test: Caspase activity, luminescent kit, caspase 8; assay type: cell-based, human; settings: for kaspáza 8, raw signal / kaspáza 8, signal / viabilita: individual experiments by date; for kaspáza 8, raw signal, průměry / kaspáza 8, % kontroly / kaspáza 8, signal / viabilita, průměry: mean; for kaspáza 8, % kontroly / kaspáza 8, signal / viabilita / kaspáza 8, signal / viabilita, průměry: normalised to viability;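 on all read-outs here: MCF-7 cells treated at 100 nM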
[7] = individual experiments, read-out: MTT viability (0 = 100)
[8] = mean, read-out: MTT viability (0 = 100), průměr

CCNC(=O)NN=C(c1ccccc1)c1ccccn1 [E-Bp4eS, 2-benzoylpyridine 4-ethylsemicarbazone]
Therapeutic index, IC50 non-cancerous cells / IC50 neoplastic cells ([1]; 3T3/MCF-7): >4.8
Therapeutic index, IC50 non-cancerous cells / IC50 neoplastic cells ([1]; H9c2/MCF-7): 4.2
IC50 ([1]; Homo sapiens, MCF7, 72 h, MCF-7, 72 h/37°C, mean ± SD, n ≥ 4): 208 ± 43.9 µM
IC50 ([1]; Homo sapiens, MCF7, MCF-7, 5 000 b/j, průměr (mean)): 209 µM
IC50 ([1]; Homo sapiens, MCF7, MCF-7, 5 000 b/j, single experiment (by date)): 194 µM
IC50 ([1]; MCF-7, 5 000 b/j, single experiment (by date)): 169 µM and 199 µM and 271 µM
MTT, value relative to 0 μM = 100 ([1]; MCF-7, 5 000 b/j, koncentrace 1 μM, průměr (mean)): 97.81
MTT, value relative to 0 μM = 100 ([1]; MCF-7, 5 000 b/j, koncentrace 1 μM, single experiment (by date)): 92.729 and 97.0185 and 91.1778 and 97.3834 and 110.755
MTT, value relative to 0 μM = 100 ([1]; MCF-7, 5 000 b/j, koncentrace 3 μM, průměr (mean)): 98.68
MTT, value relative to 0 μM = 100 ([1]; MCF-7, 5 000 b/j, koncentrace 3 μM, single experiment (by date)): 98.4078 and 88.0788 and 100.293 and 107.936
MTT, value relative to 0 μM = 100 ([1]; MCF-7, 5 000 b/j, koncentrace 10 μM, průměr (mean)): 97.39
MTT, value relative to 0 μM = 100 ([1]; MCF-7, 5 000 b/j, koncentrace 10 μM, single experiment (by date)): 92.0003 and 97.1637 and 90.3424 and 98.5326 and 108.927
MTT, value relative to 0 μM = 100 ([1]; MCF-7, 5 000 b/j, koncentrace 30 μM, průměr (mean)): 96.90
MTT, value relative to 0 μM = 100 ([1]; MCF-7, 5 000 b/j, koncentrace 30 μM, single experiment (by date)): 97.756 and 80.695 and 97.8856 and 111.258
MTT, value relative to 0 μM = 100 ([1]; MCF-7, 5 000 b/j, koncentrace 100 μM, průměr (mean)): 90.08
MTT, value relative to 0 μM = 100 ([1]; MCF-7, 5 000 b/j, koncentrace 100 μM, single experiment (by date)): 88.6813 and 85.2546 and 75.1399 and 92.8747 and 108.447
MTT, value relative to 0 μM = 100 ([1]; MCF-7, 5 000 b/j, koncentrace 300 μM, průměr (mean)): 23.35
MTT, value relative to 0 μM = 100 ([1]; MCF-7, 5 000 b/j, koncentrace 300 μM, single experiment (by date)): 24.0916 and 23.1141 and 17.816 and 28.3884
MTT, value relative to 0 μM = 100 ([1]; MCF-7, 5 000 b/j, koncentrace 1000 μM, průměr (mean)): 23.56
MTT, value relative to 0 μM = 100 ([1]; MCF-7, 5 000 b/j, koncentrace 1000 μM, single experiment (by date)): 23.4887 and 24.7991 and 25.8548 and 20.0906
Therapeutic index, IC50 non-cancerous cells / IC50 neoplastic cells ([2]; 3T3/A549): >4.0
IC50 ([2]; A549, 72 h/37°C, mean ± SD, n ≥ 4): 248 ± 28.4 µM
MTT, relative to control (0 = 100) ([2]; A549, 2 000 b/j, 1 μM, průměr (mean), sheet E-Bp4eS): 93.23
MTT, relative to control (0 = 100) ([2]; A549, 2 000 b/j, 1 μM, single experiment (date), sheet E-Bp4eS): 97.4794 and 93.8067 and 89.4519 and 90.2593 and 95.1529
MTT, relative to control (0 = 100) ([2]; A549, 2 000 b/j, 3 μM, průměr (mean), sheet E-Bp4eS): 94.11
MTT, relative to control (0 = 100) ([2]; A549, 2 000 b/j, 3 μM, single experiment (date), sheet E-Bp4eS): 94.6678 and 89.857 and 93.9888 and 97.9391
MTT, relative to control (0 = 100) ([2]; A549, 2 000 b/j, 10 μM, průměr (mean), sheet E-Bp4eS): 92.21
MTT, relative to control (0 = 100) ([2]; A549, 2 000 b/j, 10 μM, single experiment (date), sheet E-Bp4eS): 87.4036 and 92.1017 and 93.2476 and 93.9742 and 94.3384
MTT, relative to control (0 = 100) ([2]; A549, 2 000 b/j, 30 μM, průměr (mean), sheet E-Bp4eS): 90.64
MTT, relative to control (0 = 100) ([2]; A549, 2 000 b/j, 30 μM, single experiment (date), sheet E-Bp4eS): 90.1965 and 95.4707 and 85.9691 and 88.5685 and 92.9924
MTT, relative to control (0 = 100) ([2]; A549, 2 000 b/j, 100 μM, průměr (mean), sheet E-Bp4eS): 73.00
MTT, relative to control (0 = 100) ([2]; A549, 2 000 b/j, 100 μM, single experiment (date), sheet E-Bp4eS): 74.3256 and 77.7533 and 70.4536 and 74.7606 and 67.6889
MTT, relative to control (0 = 100) ([2]; A549, 2 000 b/j, 300 μM, průměr (mean), sheet E-Bp4eS): 38.58
MTT, relative to control (0 = 100) ([2]; A549, 2 000 b/j, 300 μM, single experiment (date), sheet E-Bp4eS): 29.8381 and 26.5697 and 49.6192 and 42.8896 and 44.0078
MTT, relative to control (0 = 100) ([2]; A549, 2 000 b/j, 1000 μM, průměr (mean), sheet E-Bp4eS): 20.68
MTT, relative to control (0 = 100) ([2]; A549, 2 000 b/j, 1000 μM, single experiment (date), sheet E-Bp4eS): 19.2379 and 16.653 and 18.6303 and 21.7843 and 27.0728
IC50 ([2]; A549, 2 000 b/j, single experiment (date), sheet E-Bp4eS): 234 µM and 239 µM and 259 µM and 291 µM
Therapeutic index, IC50 non-cancerous cells / IC50 neoplastic cells ([2]; H9c2/A549): 3.6
IC50 ([2]; Homo sapiens, A549, A549, 2 000 b/j, single experiment (date), sheet E-Bp4eS): 217 µM
viability at 72 h, 1 μM [3, 7]: 91%
viability at 72 h, 1 μM [3, 8]: 98%
viability at 72 h, 3 μM [3, 7]: 96.2%
viability at 72 h, 3 μM [3, 8]: 94.8%
viability at 72 h, 10 μM [3, 7]: 91.6%
viability at 72 h, 10 μM [3, 8]: 92.9%
viability at 72 h, 30 μM [3, 7]: 86.3%
viability at 72 h, 30 μM [3, 8]: 90.2%
viability at 72 h, 100 μM [3, 7]: 87.1%
viability at 72 h, 100 μM [3, 8]: 83.9%
viability at 72 h, 300 μM [3, 7]: 85.3%
viability at 72 h, 300 μM [3, 8]: 81.5%
viability at 72 h, 1000 μM [3, 7]: 74.1%
viability at 72 h, 1000 μM [3, 8]: 66.7%
MTT viability (0 = 100) ([4]; koncentrace 1 μM): 96.8721 and 104.341 and 100.156 and 97.6643
MTT viability (0 = 100) ([4]; koncentrace 3 μM): 91.697 and 99.6923 and 92.7572 and 93.5961
MTT viability (0 = 100) ([4]; koncentrace 10 μM): 87.504 and 95.4305 and 94.9836 and 95.1509
MTT viability (0 = 100) ([4]; koncentrace 30 μM): 95.2772 and 94.6873 and 87.6265 and 86.7904
MTT viability (0 = 100) ([4]; koncentrace 100 μM): 89.4336 and 75.046 and 83.8477
MTT viability (0 = 100) ([4]; koncentrace 300 μM): 87.9502 and 69.8243 and 82.8158
MTT viability (0 = 100) ([4]; koncentrace 1000 μM): 61.3011 and 59.7855 and 71.6828
IC50 ([4]; Mus musculus, Fibroblast, 72 h, 3T3, 72 h/37°C, MTT, mean ± SD, n ≥ 4, read-out: IC50): > 1000 µM
Percentage of cells in the G2/M phase [5]: slight, but significant (p < 0.01–0.05) decrease
kaspáza 8, raw signal ([6]; 3 hodiny): 1819 and 1041 and 1191.5 and 952.5
kaspáza 8, raw signal, průměry ([6]; 3 hodiny): 1251
kaspáza 8, % kontroly ([6]; 3 hodiny): 93.96 % kontroly
kaspáza 8, signal / viabilita ([6]; 3 hodiny): 18.5259 and 10.6022 and 12.135 and 9.701
kaspáza 8, signal / viabilita, průměry ([6]; 3 hodiny): 12.741
kaspáza 8, raw signal ([6]; 24 hodin): 1530 and 1548 and 1983.5 and 1503
kaspáza 8, raw signal, průměry ([6]; 24 hodin): 1641.12
kaspáza 8, % kontroly ([6]; 24 hodin): 104.70 % kontroly
kaspáza 8, signal / viabilita ([6]; 24 hodin): 15.3819 and 15.5629 and 19.9412 and 15.1105
kaspáza 8, signal / viabilita, průměry ([6]; 24 hodin): 16.4991
kaspáza 8, raw signal ([6]; 72 hodin): 6786.5 and 6488.5 and 6545 and 6983
kaspáza 8, raw signal, průměry ([6]; 72 hodin): 6700.75
kaspáza 8, % kontroly ([6]; 72 hodin): 98.51 % kontroly
kaspáza 8, signal / viabilita ([6]; 72 hodin): 69.3845 and 66.3378 and 66.9154 and 71.3935
kaspáza 8, signal / viabilita, průměry ([6]; 72 hodin): 68.5078
